Test results from ChEMBL document CHEMBL5143685, “Valorisation of the diterpene podocarpic acid - Antibiotic and antibiotic enhancing activities of polyamine conjugates” (Bioorg Med Chem, 2022).

Key:
[1] = Cytotoxicity against HEK293 cells assessed as cell growth inhibition measured after 20 hrs by resazurin dye based assay; format: toxicity; conditions: human
[2] = system: Cryptococcus neoformans; test: Antifungal activity against Cryptococcus neoformans ATCC 208821 assessed as fungal growth inhibition incubated for 36 hrs by resazurin dye based analysis; format: functional
[3] = system: Escherichia coli; test: Antibacterial activity against Escherichia coli ATCC 25922 assessed as inhibition of bacterial growth measured after 18 hrs by resazurin dye based analysis; format: functional
[4] = system: Pseudomonas aeruginosa; test: Antibacterial activity against Pseudomonas aeruginosa ATCC 27853 assessed as inhibition of bacterial growth measured after 18 hrs by resazurin dye based analysis; format: functional
[5] = system: Acinetobacter baumannii; test: Antibacterial activity against Acinetobacter baumannii ATCC 19606 assessed as inhibition of bacterial growth measured after 18 hrs by resazurin dye based analysis; format: functional
[6] = system: Staphylococcus aureus; test: Antibacterial activity against methicillin-resistant Staphylococcus aureus ATCC 43300 assessed as inhibition of bacterial growth measured after 18 hrs by resazurin dye based analysis; format: functional
[7] = system: Candida albicans; test: Antifungal activity against Candida albicans ATCC 90028 assessed as fungal growth inhibition incubated for 36 hrs by resazurin dye based analysis; format: functional
[8] = system: Klebsiella pneumoniae; test: Antibacterial activity against Klebsiella pneumoniae ATCC 700603 assessed as inhibition of bacterial growth measured after 18 hrs by resazurin dye based analysis; format: functional
[9] = system: Escherichia coli; test: Antibiotic adjuvant activity against Escherichia coli ATCC 25922 assessed as erythromycin MIC measured after 18 hrs in presence of erythromycin; format: functional

SMILES	IC50 at 20 h [1] [µM]	MIC [2] [µM]	MIC [3] [µM]	MIC [4] [µM]	MIC [5] [µM]	MIC [6] [µM]	MIC [7] [µM]	MIC [8] [µM]	MIC [9] [µM]
C[C@]1(C(=O)NCCCNCCCCCCCN)CCC[C@]2(C)c3cc(O)ccc3CC[C@@H]12.O=C(O)C(F)(F)F.O=C(O)C(F)(F)F	> 47.6	> 47.6	> 47.6	> 47.6	> 47.6	> 47.6	> 47.6	> 47.6	–
COC(=O)[C@@]1(C)CCC[C@]2(C)c3cc(OC(=O)CCCNCCCCCCNCCCNC(=O)Oc4ccc5c(c4)[C@@]4(C)CCC[C@](C)(C(=O)OC)[C@@H]4CC5)ccc3CC[C@@H]12.O=C(O)C(F)(F)F.O=C(O)C(F)(F)F	4.68	0.46	14.7	> 29.4	> 29.4	≤ 0.23	≤ 0.23	> 29.4	–
C[C@]1(C(=O)NCCCNCCCCCCCCCCNCCCNC(=O)[C@@]2(C)CCC[C@]3(C)c4cc(O)ccc4CC[C@@H]23)CCC[C@]2(C)c3cc(O)ccc3CC[C@@H]12.O=C(O)C(F)(F)F.O=C(O)C(F)(F)F	0.87	3.89	> 31.1	> 31.1	> 32.1	≤ 0.24	> 32.1	> 31.1	–
C[C@]1(C(=O)NCCCNCCCCCCNCCCNC(=O)[C@@]2(C)CCC[C@]3(C)c4cc(O)ccc4CC[C@@H]23)CCC[C@]2(C)c3cc(O)ccc3CC[C@@H]12.O=C(O)C(F)(F)F.O=C(O)C(F)(F)F	28.6	32.9	32.9	> 32.9	> 32.9	32.9	32.9	> 32.9	–
COC(=O)[C@@]1(C)CCC[C@]2(C)c3cc(OC(=O)CCCNCCCCCCCCCCCCNCCCNC(=O)Oc4ccc5c(c4)[C@@]4(C)CCC[C@](C)(C(=O)OC)[C@@H]4CC5)ccc3CC[C@@H]12.O=C(O)C(F)(F)F.O=C(O)C(F)(F)F	> 27.3	0.43	> 27.3	> 27.3	> 27.3	≤ 0.21	≤ 0.21	> 27.3	–
C[C@]1(C(=O)NCCCNCCCCCCN)CCC[C@]2(C)c3cc(O)ccc3CC[C@@H]12.O=C(O)C(F)(F)F.O=C(O)C(F)(F)F	> 48.6	> 48.6	> 48.6	> 48.6	> 48.6	> 48.6	> 48.6	> 48.6	–
C[C@]1(C(=O)NCCCNCCCCCCN)CCC[C@]2(C)c3cc(OC(=O)NCCCNCCCCCCN)ccc3CC[C@@H]12.O=C(O)C(F)(F)F.O=C(O)C(F)(F)F.O=C(O)C(F)(F)F.O=C(O)C(F)(F)F	> 29.5	> 29.5	> 29.5	> 29.5	> 29.5	> 29.5	> 29.5	> 29.5	50
C[C@]1(C(=O)O)CCC[C@]2(C)c3cc(OC(=O)NCCCNCCCCCCCN)ccc3CC[C@@H]12.O=C(O)C(F)(F)F.O=C(O)C(F)(F)F	> 44.7	> 44.7	> 44.7	> 44.7	> 44.7	> 44.7	> 44.7	> 44.7	–
C[C@]1(C(=O)NCCCNCCCCCCCCN)CCC[C@]2(C)c3cc(O)ccc3CC[C@@H]12.O=C(O)C(F)(F)F.O=C(O)C(F)(F)F	> 46.7	> 46.7	> 46.7	> 46.7	> 46.7	46.7	> 46.7	> 46.7	–
COC(=O)[C@@]1(C)CCC[C@]2(C)c3cc(OC(=O)CCCNCCCCCCCNCCCNC(=O)Oc4ccc5c(c4)[C@@]4(C)CCC[C@](C)(C(=O)OC)[C@@H]4CC5)ccc3CC[C@@H]12.O=C(O)C(F)(F)F.O=C(O)C(F)(F)F	> 29.1	7.26	> 29.1	> 29.1	> 29.1	≤ 0.23	≤ 0.23	> 29.1	–
C[C@@]12CCC[C@](C)(C(=O)O)[C@H]1CCc1ccc(OC(=O)CCCNCCCCNCCCNC(=O)Oc3ccc4c(c3)[C@@]3(C)CCC[C@](C)(C(=O)O)[C@@H]3CC4)cc12.O=C(O)C(F)(F)F.O=C(O)C(F)(F)F	> 31	7.76	> 31	> 31	> 31	> 31	7.76	> 31	–
COC(=O)[C@@]1(C)CCC[C@]2(C)c3cc(OC(=O)CCCNCCCCNCCCNC(=O)Oc4ccc5c(c4)[C@@]4(C)CCC[C@](C)(C(=O)OC)[C@@H]4CC5)ccc3CC[C@@H]12.O=C(O)C(F)(F)F.O=C(O)C(F)(F)F	16.4	1.89	30.2	> 30.2	30.2	1.89	15.1	> 30.2	–
